Patent US9095567B2, “Vaccine formulations” (priority 2010, dated 2015)

Legend:
Test in all cases: Preservative effectiveness test, single challenge
Assay type in all cases: cell-based
[1] = tested on: Aspergillus niger (ATCC #16404); settings: Prev(e)nar 13 formulation, single challenge, 20 to 25° C.
Source text: (§1) To test for preservative effectiveness, aliquots of vaccine were inoculated with the following organisms:
(§2) Thirty milliliters (ml) of each vaccine formulation with and without Thimerosal or 2-PE at indicated concentrations or saline containing Thimerosal at 0.02% were inoculated in triplicates with a suspension of each test organism to achieve an inoculum density of approximately 10^5 to 10^6 CFU/ml at time 0 (CFU=colony forming units). […] Samples were mixed to ensure even distribution of challenged organisms. Another 30 ml of vaccine in triplicate (with and without preservative) were used as a negative control and spiked with the culture media alone to evaluate the inherent contamination that might be present in the sample or media. Each of the three series of vaccines, and positive and negative controls, was then separately incubated at 20 to 25° C. Aliquots (1 ml) of the challenged samples and controls (or their appropriate serial ten fold dilutions) were enumerated by plate count in duplicates at time 0 and at intervals of 6 hours, 24 hours, 7 days, 14 days and 28 days post-inoculation.
(§3) USP 29 NF 24 Supplement 2 (USP) requires that, after an inoculation of bacterial micro-organism(s), there is at least 1.0 log reduction from the initial calculated count (i.e., at time of inoculation) at 7 days, at least 3.0 log reduction at 14 days from the previous value measured and no increase at 28 days from the previous measured value. For yeast and fungi, the USP requirement is for there to be no increase from the time of inoculation to 7, 14 and 28 days.
(§4) EP requirements are more stringent. EP 5th Edition 5.6 (5.1.3) requirements for parenteral and ophthalmic preparations has two components: Category A and Category B. Category A (EP-A) requires, for bacteria, at least 2.0 log reduction from the initial calculated count at 6 hours after inoculation, at least 3.0 log reduction at 24 hours from the previous measured value, and no recovery at 28 days. Category B (EP-B) requires, for bacteria, at least 1.0 log reduction at 24 hours from the initial calculated count, at least 3.0 log reduction at 7 days from the previous value measured and not more than 0.5 log increase at 28 days from the previous value measured (i.e., no increase). For yeast and fungi, Category A requires at least 2.0 log reduction at 7 days and no increase from the previous value measured at 28 days, and Category B requires at least 1.0 log reduction at 14 days and no increase from the previous value measured at 28 days.
(§5) Plates containing <300 CFU for bacteria or <100 CFU for yeast or mold were used during enumeration. For single challenge studies, arithmetic average count of all surviving micro-organisms in triplicate and on duplicate plates (6 values per time point) plus their diluted samples were measured and normalized as CFU/ml. The results are expressed as mean log10 CFU/ml reduction (compared to time 0). In this case, the count of surviving micro-organisms is evaluated at time 0 as the baseline and compared to incubation time of 6 hours, 24 hours, 7 days, 14 days and 28 days.

[2] = tested on: Staphylococcus aureus (ATCC #6538); settings: Prev(e)nar 13 formulation, single challenge, 20 to 25° C.
Source text: as §1, §2, §3, §4, §5

E. coli = settings: Prev(e)nar 13 formulation, 20 to 25° C.
Source text: as §1, §2, §3, §4, §5

[3] = tested on: Pseudomonas aeruginosa (ATCC #9027); settings: Prev(e)nar 13 formulation, 20 to 25° C.
Source text: as §1, §2, §3, §4, §5

[4] = tested on: Candida albicans (ATCC#10231); settings: Prev(e)nar 13 formulation, single challenge, 20 to 25° C.
Source text: as §1, §2, §3, §4, §5

| Compound | EP (EP-B) vaccine safety requirements, A. niger [1] | USP vaccine safety requirements, A. niger [1] | EP (EP-B) vaccine safety requirements, S aureus [2] | USP vaccine safety requirements, S aureus [2] | EP (EP-B) vaccine safety requirements, E. coli (E. coli) | USP vaccine safety requirements, E. coli (E. coli) | EP (EP-B) vaccine safety requirements, P. aeruginosa [3] | USP vaccine safety requirements, P. aeruginosa [3] | EP (EP-B) vaccine safety requirements, C. albicans [4] | USP vaccine safety requirements, C. albicans [4] |
| --- | --- | --- | --- | --- | --- | --- | --- | --- | --- | --- |
| Cc1cccc(O)c1 [0.3% m cresol, Meta-Cresol] | Meets | Meets | Fails | Meets | Fails | Meets | Fails | Meets | Meets | Meets |
| Oc1ccccc1 [0.25% phenol, Phenol] | Meets | Meets | Fails | Meets | Fails | Meets | Fails | Meets | Meets | Meets |
